{"source": "patent US11918550B2", "about": "“Sensitization of cancer cells to differentiation therapy with mitochondrial uncoupler niclosamide ethanolamine” (The Board of Trustees of the Leland Stanford Junior …, priority 2020, dated 2024)", "assay_type_in_all_cases": "cell-based", "key": {"NB16 cells": {"test_system": "NB16 cells", "assay": "U-13C-glutamine isotope tracing (LC/MS)", "method": "(§1) Metabolic analysis. For the metabolomics and isotope tracing analysis in vitro, cells were washed with cold PBS, lysed in 80% Ultra LC-MS acetonitrile on ice for 15 minutes, centrifuged at 20,000 g for 10 minutes at 4° C., and supernatant was subjected to mass spectrometry analysis. For the metabolomics analysis in vivo, 10-20 mg tissue were cut off on ice, rinsed if necessary to remove blood, and place in a 2 ml round-bottom cryovial. The tissues were homogenized by 3 times 10 s on/off bursts homogenization in 1 ml 80% methanol on dry ice. Transfer the homogenate to an Eppendorf tube and keep on liquid nitrogen while processing the remaining samples. Incubated all the samples in −80° C. for 30 minutes. After incubation, vortexed the samples for 5 seconds. Then centrifuged the samples at 20,000 g for 10 minutes at 4° C., and supernatant was subjected to mass spectrometry analysis. Resuspend the remaining cellular pellet in 100 ul protein lysis buffer and determine the protein concentration. Then calculate the total protein content per sample.\n(§2) Liquid chromatography was performed using an Agilent 1290 Infinity LC system (Agilent, Santa Clara, US) coupled to a Q-TOF 6545 mass spectrometer (Agilent, Santa Clara, US). A hydrophilic interaction chromatography method (HILIC) with a BEH amide column (100×2.1 mm i.d., 1.7 μm; Waters) was used for compound separation at 35° C. with a flow rate of 0.3 ml/minutes. The mobile phase A consisted of 25 mM ammonium acetate and 25 mM ammonium hydroxide in water and mobile phase B was acetonitrile. The gradient elution was 0-1 minute, 85% B; 1-12 minutes, 85% B→65% B; 12-12.2 minutes, 65% B→40% B; 12.2-15 minutes, 40% B. After the gradient, the column was re-equilibrated at 85% B for 5 minutes. The overall runtime was 20 minutes, and the injection volume was 5 μL. Agilent Q-TOF was operated in negative mode and the relevant parameters were as listed: ion spray voltage, 3500 V; nozzle voltage, 1000 V; fragmentor voltage, 125 V; drying gas flow, 11 L/minutes; capillary temperature, 325° C., drying gas temperature, 350° C.; and nebulizer pressure, 40 psi. A full scan range was set at 50 to 1600 (m/z). The reference mass was 119.0363 and 980.0164. The acquisition rate was 2 spectra/s. Targeted analysis, isotopologues extraction and natural isotope abundance correction were performed by Agilent Profinder B.10.00 (Agilent Technologies).\n(§3) Stable isotope tracing analysis. […] Then the culture medium was changed to DMEM/F-12, no glutamine (Gibco, 21331020) with 4 mM U-^13C5-glutamine (Cambridge Isotope Laboratories, CLM-1822-H) and 10% dialyzed FBS (Gibco, 26400044) under same treatment condition as above for 2 h. […] Then changed the medium to DMEM/F-12, no glutamine (Gibco, 21331020) with 4 mM 1-^13C-glutamine (Cambridge Isotope Laboratories, CLM-CLM-3612-PK) and 10% dialyzed FBS (Gibco, 26400044) for 2 h with same treatment under normoxia or hypoxia for 2 h."}, "SK-N-BE(2) cells [1]": {"test_system": "SK-N-BE(2) cells", "assay": "U-13C-glutamine isotope tracing (LC/MS)", "method": "as §1, §2, §3"}, "SK-N-BE(2) cells [2]": {"test_system": "SK-N-BE(2) cells", "assay": "1-13C-glutamine tracing of reductive carboxylation under normoxia or hypoxia", "conditions": "1 μM NEN", "method": "as §1\nLiquid chromatography was performed using an Agilent 1290 Infinity LC system (Agilent, Santa Clara, US) coupled to a Q-TOF 6545 mass spectrometer (Agilent, Santa Clara, US). […]"}, "SK-N-BE(2) cells [3]": {"test_system": "SK-N-BE(2) cells", "assay": "Methylated DNA Immunoprecipitation (MeDIP)-qRT-PCR", "conditions": "1 μM NEN 5 h", "method": "Methylated DNA Immunoprecipitation. 5×10^5 SK-N-BE(2) cells were plated in 60 mm dishes. […] After treatment, the cells were collected for DNA extraction as described above. 10 μg genomic DNA was sheared using a Bioruptor® Plus sonicator (Diagenode, UCD-300) to 550 bp fragments according to the instrument manual. Agarose electrophoresis was employed to examine the sizes of DNA fragments. The sonicated DNA samples were denatured at 95° C. for 15 minutes, then kept on ice immediately for at least 5 minutes. 200 ng denatured DNA was transferred to a new tube for input control and diluted with EDTA-free TE buffer to 100 μl total volume. For each pulldown reaction, transfer 600 ng of denatured DNA solution to new tubes and add EDTA-free TE buffer to 300 μl total volume. Add 2 μl antibody (5-mc or IgG control) and 20 μl prewashed Dynabeads™ Protein A (Invitrogen™, 10001 D) into the tubes and incubate the samples at 4° C. for 60 minutes with rotation. After incubation, place the tubes in magnetic rack for 30 s to allow the beads separate from solution. Remove the solution carefully without disturbing the beads. Wash the beads for 4 times by IP buffer (0.01% SDS, 1% Triton X-100, 2 mM EDTA, 20 mM Tris-HCl pH 8.1, 150 mM NaCl). DNA was eluted by resuspending the beads in 100 μl of digestion buffer (10 mM Tris pH 8.0, 1 mM EDTA, 1% SDS, 1 μg/μl proteinase K) and incubated for 6 hr at 65° C. […]"}, "[4]": {"conditions": "NB16, 1 μM NEN 3 h pretreatment then 2 h label"}, "[5]": {"conditions": "1 μM NEN 3 h pretreatment then 2 h label"}}}
{"smiles": "O=C(Nc1ccc([N+](=O)[O-])cc1Cl)c1cc(Cl)ccc1O", "note": "[NEN, 5-chloro-N-(2-chloro-4-nitrophenyl)-2-hydroxybenzamide compound with 2-aminoethanol (1:1)]", "values": [{"measurement": "m+4 aspartate", "setting": "NB16 cells; [4]", "value": "increased"}, {"measurement": "m+4 succinate", "setting": "NB16 cells; [4]", "value": "increased"}, {"measurement": "m+5 2-HG labelling", "setting": "NB16 cells; [4]", "value": "no significant reduction"}, {"measurement": "m+5 and m+3 labeling of α-KG from glutamine", "setting": "NB16 cells; [4]", "value": "increased"}, {"measurement": "reductive carboxylation flux (labelling fraction of m+5 citrate, m+3 fumarate, m+3 malate)", "setting": "NB16 cells; NB16, U-13C-glutamine, 1 μM NEN, normoxia", "value": "significantly inhibited"}, {"measurement": "labelling abundance of m+2 (2nd cycle) and m+½ (3rd cycle) aspartate", "setting": "SK-N-BE(2) cells [1]; [5]", "value": "significantly increased"}, {"measurement": "labelling abundance of m+2 (2nd cycle) and m+½ (3rd cycle) succinate", "setting": "SK-N-BE(2) cells [1]; [5]", "value": "significantly increased"}, {"measurement": "labelling percentage of m+3 (2nd cycle) α-KG", "setting": "SK-N-BE(2) cells [1]; [5]", "value": "significantly increased"}, {"measurement": "labelling percentage of m+½ (3rd cycle) α-KG", "setting": "SK-N-BE(2) cells [1]; [5]", "value": "significantly increased"}, {"measurement": "m+5 labelling abundance of 2-HG", "setting": "SK-N-BE(2) cells [1]; [5]", "value": "significantly decreased"}, {"measurement": "m+5 α-KG labelling from U-13C-glutamine", "setting": "SK-N-BE(2) cells [1]; [5]", "value": "no significant increase"}, {"measurement": "reductive carboxylation flux (labelling fraction of m+5 citrate, m+3 fumarate, m+3 malate)", "setting": "SK-N-BE(2) cells [1]; U-13C-glutamine, 1 μM NEN, normoxia", "value": "significantly inhibited"}, {"measurement": "hypoxia-induced reductive carboxylation flux", "setting": "SK-N-BE(2) cells [2]; hypoxia (0.5% oxygen)", "value": "fully repressed"}, {"measurement": "basal reductive carboxylation flux", "setting": "SK-N-BE(2) cells [2]; normoxia", "value": "reduced"}, {"measurement": "methylation on promoter region of genes in RAR signaling", "setting": "SK-N-BE(2) cells [3]", "value": "reduced"}]}
